Source: patent publication US20140161767A1, “FOLLICLE-STIMULATING HORMONE (FSH)/LYTIC DOMAIN FUSION CONSTRUCTS AND METHODS OF MAKING AND USING SAME” (BOARD OF SUPERVISORS OF LOUISIANA STATE UNIVERSITY AND …, priority 2012, published 2014)

Experiments:
[1] = test system: MDA-MB-435S.luc xenograft; test: Mouse xenograft model of breast cancer, βCG fusion constructs; assay type: in vivo, mice; conditions: weekly bolus injections, days 13, 19, 25
Protocol: This example describes in vivo studies in a mouse xenograft model of breast cancer with various types and doses of βCG- and LHRH-fusion constructs.
Female Nu/Nu mice were injected subcutaneously with a MDA-MB-435S.luc/Matrigel HC suspension (1×10^6 cells). In brief, treatment started on day 13 after tumor cell injection and continued on day 19 and 25. […] The doses for weekly injections were 5, 1 and 0.01 mg/kg body weight, given as a bolus single injection.
The effect of cytolytic peptide injections on the primary tumors is illustrated in FIG. 8. In brief, the FIGS. 8A-8C show tumor volume during the course of the study for each individual peptide. FIGS. 8D-8G show tumor characteristics at necropsy: tumor volume (D), tumor weight (E), live tumor cells (F), tumor conditions (G).
Treatment efficacy was calculated as difference between measurements at the beginning of treatment compared to the measurement at the end of study (FIG. 8H-8I). […] Viability of cells in the tumors was determined at the end of the study when tumors were measured for luciferase activity.

MES-SA-Dx5 = test: Cell viability after 4 hours (Cell Titer Glo), MES-SA-Dx5; assay type: cell-based, human; conditions: 4 h incubation; read-out: Activities [μM] MES-SA-Dx5 (p61)
Protocol: Human ovarian cancer cell lines OVCAR-3 (p 41), SKOV-3 (p 35) and the human uterine sarcoma cell line MES-SA-Dx5 (p 61) (multi-drug resistant clone), the human pancreatic cancer cell line Panc-1 (passage number 18), and human triple negative breast cancer cell line MDA-MB-231 (passage number 47) were grown in ATCC recommended medium, 10% fetal bovine serum, 100 IU/ml penicillin, 100 microg/ml streptomycin. Cells were typically seeded (2,000 cells per well) into 96 well plates and media was replaced after 48 hours of incubation. […] Each Phor-18-hFSH-β81-89 conjugate provided in lyophilized form was dissolved in saline and added to cells. The duration of incubation was 4 hours at 37° C. Cell viability was assessed after 4 hours using a luminometric assays (Promega, Cell Titer Glo, G755B, lot #00000031421). Controls contained saline or 0.1% triton as reference for 0 and 100% cell death, respectively.
Data were processed and analyzed using GraphPad Prism version 5.00 for Windows, GraphPad Software, San Diego Calif. USA, www.graphpad.com”. Statistical analysis for significance was determined by a two-tailed Student's T-test. Each study was conducted to achieve an N of at least 6.
In vitro activities were expressed as IC50 values for each cell line, time point and compound tested that were calculated using the Hill equation (Graph Pad Prizm software).

[2] = test system: MDA-MB-435S.luc xenograft; test: Mouse xenograft model of breast cancer, LHRH fusion constructs; assay type: in vivo, mice
Protocol: For LHRH fusion constructs, the mouse xenograft model for breast cancer was used. In brief, Nu/Nu female mice, outbred strain, age 5 weeks (Charles River) were injected subcutaneously with a MDA-MB-435S.luc/Matrigel suspension (1×10^6 cells). Treatment was started on day 21 after tumor cell injection and continued on day 26 and 29. The doses for weekly fusion construct injections were 2, 0.2 and 0.02 mg/kg body weight, given as a bolus single injection. All mice were necropsied 34 days after tumor cell injection—baseline values for tumor weights were obtained by sacrificing 8 mice at treatment start. Primary tumors, liver, kidney, pancreas, heart, lung, and spleen were collected and prepared for histological evaluation in formalin. Tumor weights were recorded at necropsy, part of the tumors were frozen at −80° C. for luciferase assay determination.
Characteristics of tumors at necropsy are summarized in FIG. 10: (A) tumor weight, (B) changes of tumor weights compared to baseline, (C) total number of live tumor cells, (D) changes of total live tumor cells compared to baseline, and (E) bodyweights at baseline and necropsy. Viability of tumor cells was determined at the end of the study when tumors were measured for luciferase activity. Treatment efficacy was calculated as difference between measurements at the beginning of treatment compared to the measurement at the end of study (FIGS. 10B and 10D).

MDA-MB-435 = test: Fluorescence microscopy, mechanism of action in MDA-MB-435 cells; assay type: cell-based, human; conditions: 10 μM, 5 minutes exposure
Protocol: In brief, human breast cancer cells (MDA-MB-435, passage #252) were seeded onto culture dishes. The following markers were introduced prior to adding EP100: DRAQ5™ (Alexis Corporation)—blue—was used for staining of the nucleus and MnoTracker® Red CMXRos (M7512) (Molecular Probes, Inc. OR) were applied for visualizing intact mitochondria. Cell membranes were stained with wheat germ alexa fluor green conjugates (Molecular Probes, Inc. OR).
Cells were loaded first with Mitotracker dye, according to the manufacturers recommendation. […] Culture dishes with saline only served as controls. The supernatant was removed and the remaining cells prepared for fluorescence microscopy imaging.

Substance | Tumor volume compared to saline controls [1] | IC50 (MES-SA-Dx5) [µM] | Concentrations resulting in tumor weights similar to baseline ([2]; mouse, in vivo) [mg/kg] | In vivo tumor efficacy compared to reference Phor21-βCG-ala (tumor weight, viable tumor cells) ([2]; mouse, in vivo) | Tumor volume after 30 days compared to baseline ([2]; p<0.01) | Plasma membrane (fluorescence microscopy) (MDA-MB-435)
KFAKFAK KFAKFAK KFAK [Phor18] | ineffective | 28.1 ± 2.5 |  |  |  | 
KFAKFAKKFAKFAKKFAKQHWSYGLRPG [Phor18-LHRH] |  |  | 0.2 | Equally effective | smallest tumor volumes | disintegration of the plasma membrane
